From patent US20240277684A1, “BLOCKADE OF CHEMOKINE (C-C MOTIF) RECEPTOR 2 DURING FLUID RESUSCITATION” (University of South Florida, priority 2022, published 2024)

Experiments:
hemorrhagic shock [1] = test: Example 1 first series: 30 min hemorrhagic shock, fluid resuscitation until t=90 min; assay type: in vivo, rat
Experimental: In vivo animal experiments. All procedures were performed in accordance with the National Institutes of Health Guidelines for Use of Laboratory Animals and were approved by the University of South Florida Institutional Animal Care and Use Committeee (IS00008139). Male Sprague-Dawley rats (300-400 g, Envigo, Indianapolis, IN, USA). were anesthetized with 1.7% isoflurane via nose-cone inhalation with the SomnoSuite anesthesia system (Kent Scientific, Torrington, CT, USA). […] The left femoral artery was isolated and cannulated with a 24-gauge peripheral intravenous catheter to allow for blood withdrawal, hemodynamic monitoring, drug administration, and fluid resuscitation. Hemodynamics were continuously monitored with the SurgivetV6400 blood pressure monitor (Med-Electronics, Beltsville, MD, USA), and blood pressures and heart rate were recorded at 1-10 min intervals. All animals were observed over a 10 min period to ensure hemodynamic stability before start of the experiments. All experiments were performed randomized in alternating order. […] Physiol Res 2019; 68(4):675-679; Nassoiy S P, et al., Effects of the Kv7 voltage-activated potassium channel inhibitor linopirdine in rat models of haemorrhagic shock. Clin Exp Pharmacol Physiol 2018; Nassoiy S P, et al., Kv7 voltage-activated potassium channel inhibitors reduce fluid resuscitation requirements after hemorrhagic shock in rats. J Biomed Sci 2017; 24(1):8; Bach H Ht, et al., Proteasome inhibition prolongs survival during lethal hemorrhagic shock in rats. J Trauma Acute Care Surg 2013; 74(2):499-507; Bach H Ht, et al., Chemokine (C-X-C motif) receptor 4 and atypical chemokine receptor 3 regulate vascular alpha(1)-adrenergic receptor function. Mol Med 2014; 20:435-447), with slight modifications. In brief, rats were hemorrhaged to a mean arterial blood pressure (MAP) of less than or equal to 30 mmHg for a period of 30 minutes. At the end of the HS period (t=30 min), animals were injected with either vehicle (1 mL LR) or drug in 1 mL LR, followed by fluid resuscitation with 1 mL bolus injections of LR to maintain a systolic blood pressure (SBP) of 90 mmHg or a MAP of 60 mmHg. To avoid fluid overload, bolus injections of LR were limited to 1 mL/min. […] Animals were then resuscitated until t=90 min. At t=0, 15, 30, 60 and 90 min, blood samples were obtained, and plasma prepared. Samples were stored at -70° C. until further processing. At t=90 min, animals were euthanized (isoflurane inhalation, bilateral pneumothorax).

hemorrhagic shock [2] = test: Example 2 Series 2: 60 min hemorrhagic shock, single dose, fluid resuscitation until t=300 min; assay type: in vivo, rat
Experimental: (§1) The hemorrhagic shock models were performed as described previously, with slight modifications (DeSantis A J, et al., The Chemokine (C-C Motif) Receptor 2 Antagonist INCB3284 Reduces Fluid Requirements and Protects From Hemodynamic Decompensation During Resuscitation From Hemorrhagic Shock. Crit Care Explor 2022;4(5):e0701; Bach H H, et al., Chemokine (C-X-C motif) receptor 4 and atypical chemokine receptor 3 regulate vascular alpha(1)-adrenergic receptor function. Mol Med 2014; 20:435-47; Nassoiy S P, et al., Effects of the Kv7 voltage activated potassium channel inhibitor linopirdine in rat models of hemorrhagic shock. Clin Exp Pharmacol Physiol 2018. doi: 10.1111/1440-1681.12958. PubMed PMID: 29702725; Bach H H, et al., Proteasome inhibition prolongs survival during lethal hemorrhagic shock in rats. J Trauma Acute Care Surg 2013; 74(2):499-507). In brief, anesthesia induction was performed with the animal and isoflurane-soaked gauze placed in a bell jar. After anesthesia induction, the animals were transferred to the operative field and anesthesia was maintained with 2.7% isoflurane administered via nose-cone inhalation with the SomnoSuite small animal anesthesia system (Kent Scientific Corporation, Torrington, CT, USA). […] Using a direct cut-down technique, the left femoral artery was isolated and cannulated with a 24-gauge peripheral intravenous catheter to allow for blood withdrawal, hemodynamic monitoring, drug administration, and fluid resuscitation. After catheter placement, isoflurane was decreased to 1.5%. Hemodynamics were continuously monitored with the Surgivet invasive blood pressure monitor (Med-Electronics, Beltsville, MD, USA). Blood pressures were recorded at 1-5 min intervals during the hemorrhage and resuscitation periods. Four subsequent series of experiments were performed. All experiments in each series were performed in alternating order. In all experiments animals were continuously monitored and remained under general anesthesia until euthanasia or death, as defined by asystole or loss of pulse pressure.
(§2) Series 2: Rats were hemorrhaged to a MAP of less than or equal to 30 mmHg for a period of 60 min, followed by fluid resuscitation until t=300 min as in Series 1. At the end of the hemorrhagic shock period (t=60 min), animals were injected with 1 mL of normal saline (NS) (n=6), 5 μmol/kg (n=6) INCB3284 in 1 mL NS or 1.1 μmol/kg SB 328437 (n=6) in 1 mL NS at t=60 min. At t=0 min, 60 min, 120 min, 180 min, 240 min and 300 min, blood samples (0.3 ml) were obtained and used for arterial blood gas analyses and measurements of routine laboratory parameters. At t=300 min, surviving animals were euthanized (5% isoflurane inhalation, bilateral pneumothorax).
(§3) Arterial blood gases and routine laboratory parameters. Arterial blood gases, electrolytes, creatinine, lactate, hematocrit and hemoglobin were analyzed using the Element point of care veterinary blood gas, electrolyte and critical care analyzer (Cuattro Veterinary USA, Loveland, CO, USA).

hemorrhagic shock [3] = test: Example 2 Series 3: 60 min hemorrhagic shock, redosing, fluid resuscitation until t=300 min; assay type: in vivo, rat; settings: 5 μmol/kg at t=60 min and t=200 min
Experimental: as §1
as §2, with “3:” for “2:”, “2.” for “1.”, “min) and at t=200 min,” for “min),”, “NS (n=7) or with” for “normal saline (NS) (n=6),”, “μmol/kg” for “μmol/kg (n=6)”, “(n=7).” for “or 1.1 μmol/kg SB 328437 (n=6) in 1 mL NS at t=60 min.”
as §3

[4] = rats; cited from earlier work

COc1ccc([C@]2(O)CC[C@@H](N3CC[C@@H](NC(=O)CNC(=O)c4cccc(C(F)(F)F)c4)C3)CC2)cn1 [INCB3284]
fluid requirements to maintain hemodynamics (hemorrhagic shock [1]; 1.1 μmol/kg at t=30 min, until t=90 min, p>0.05 vs. vehicle): 50 ± 1 mL/kg
effect on fluid requirements to maintain hemodynamics (hemorrhagic shock [1]; 1.1 μmol/kg at t=30 min, vs vehicle): did not affect fluid requirements
MAP during the observation period (hemorrhagic shock [1]; 5.5 μmol/kg at t=30 min): increased MAP at various time points
reduction of fluid requirements (hemorrhagic shock [1]; 5.5 μmol/kg at t=30 min, until t=90 min, vs vehicle): 58±11%
fluid requirements to maintain hemodynamics (hemorrhagic shock [1]; 5.5 μmol/kg at t=30 min, until t=90 min, p<0.05 vs. vehicle): 21.7 ± 6 mL/kg
median survival time (hemorrhagic shock [2]; 1.1 μmol/kg SB328437 or 5 μmol/kg INCB3284 at t=60 min): undefined
animals that survived the resuscitation period (hemorrhagic shock [2]; 1.1 μmol/kg SB328437 or 5 μmol/kg INCB3284 at t=60 min, until t=300 min, n=6): all
reduction of fluid resuscitation requirements to achieve the target MAP (hemorrhagic shock [2]; 5 μmol/kg at t=60 min, until t=220 min, p<0.05 vs. vehicle): 65%
steep increase in fluid requirements (hemorrhagic shock [3]): prevented
reduction of total fluid requirements (hemorrhagic shock [3]; at t=300 min, vs vehicle): 75%
total fluid requirements (hemorrhagic shock [3]; at t=300 min, p<0.05 vs. vehicle): 33 ± 16 mL/kg
median survival time (hemorrhagic shock [3]; p<0.05 vs. vehicle): undefined
mortality (hemorrhagic shock [3]; p<0.05 vs. vehicle): zero
half-live [4]: 168 min
